Source: PMC13164762, “Development and Validation of an LC-MS/MS Method for the Quantitation of JNJ-64619178 (JNJ) in Mouse Plasma: Characterization of In Vitro and In Vivo Pharmacokinetic Properties” (Molecules, 2026)
Converted amounts (≈) assume the structure as drawn. “And” between values parts separate entries of the source, which are not always exact repeats. Equal values may be shown once. Read-outs that look alike come from different tables or passages of the source.

Key:
Kinetic solubility study = assay type: physicochemical; conditions: PBS, room temperature, read-out: kinetic aqueous solubility
Experimental: An amount of 500 µL of PBS was taken into a 96-well plate in the required rows. The required volume of the JNJ stock solution was spiked to make the final concentrations of 160, 80, 60, 50, 40, 20, 10, and 5 µg mL^−1. The plate was vortexed at 1000 rpm for 5 min and incubated at room temperature for 2 h. After incubation, aliquots of 100 µL of the samples were collected and diluted 2 times with acetonitrile. Diluted samples were centrifuged at 2200× g for 10 min. Then, 10 µL of supernatant was added to another collection plate, where previously 200 µL of the mobile phase supplemented with 10 µL IS was taken.

[1] = Rapid equilibrium dialysis (RED) brain protein binding; assay type: in vitro ADME, mouse; conditions: for fraction unbound at 5 h: mouse, brain homogenate
Experimental: (§1) A rapid equilibrium dialysis (RED) protein binding assay was performed to determine the protein binding of JNJ in plasma and brain matrix. The RED plate was obtained from Thermo Fisher Scientific (Frederick, MD, USA) for the experiment. An aliquot (200 µL) of JNJ spiked plasma/brain homogenate was poured into the donor chamber, and 400 µL dialysis buffer-PBS containing 100 mM sodium phosphate and 150 mM sodium chloride was added into the receiver compartment of each RED insert in triplicate. The plate was kept in incubation for 5 h on the orbital shaker at 37 °C. Following incubation, 50 µL plasma and buffer aliquots were collected separately, and an equal volume of opposite matrix was added. Collected samples were processed as previously described in Section 4.6 and analyzed using LC-MS/MS. Degree of protein binding (%) was calculated by the following equation:(6) Protein bound (%)=Concentrationdonor cell−Concentrationreceiver cell/Concentrationdonor cell×100

[2] = In vivo PK study (plasma, IV and PO); design: species or system balb/c mice; conditions: for half-life: read-out: t1/2 (terminal half-life) (converted)
Experimental: We performed in vivo PK analysis for JNJ by 2.5 mg kg^−1 IV and 10 mg kg^−1 PO routes of administration in healthy male balb/c mice. We could quantify a dynamic range of concentrations in in vivo PK samples with our established LC-MS/MS method. Non-compartmental analysis (NCA) was performed using Phoenix software version 8.3 to estimate PK parameters from the observed plasma concentration–time profile data. […] The NCA PK parameter data are represented in Table 6. For the oral PK study, male balb/C mice were grouped into two groups, with n = 4 for each group. Throughout the experiment, mice had free access to adequate food and water. The oral solution comprised 20% (v/v) polyethylene glycol 400, 10% (v/v) propylene glycol, 10% (v/v) ethanol, 2% (v/v) DMSO, 5% cremophore, and water as the rest of the volume. For the IV dose administration, 12 male balb/C mice were used in the study, divided into two groups. The IV solution used the same composition as the oral study. Doses of 10 and 2.5 mg kg^−1 were used for oral and IV routes, respectively. Blood samplings were done at 5 min, 15 min, 30 min, 1 h, 2 h, 4 h, 8 h, and 24 h. After collection, blood samples were centrifuged immediately at 956× g for 10 min, and plasma was separated in an Eppendorf tube and stored at −80 °C until processed. In the oral PK study, tissues—liver, kidney, spleen, lung, and brain—were collected at 2, 8, and 24 h to assess the biodistribution pattern of JNJ in the oral route.

[3] = Microsomal metabolic stability, mouse liver microsomes; assay type: in vitro ADME
Experimental: Mouse and human liver microsomes were used for the metabolic stability assay. In brief, the incubation mixture (500 µL) consisted of phosphate-buffered saline (PBS) (100 mM, pH 7.4), microsomal protein (0.5 mg mL^−1), magnesium chloride (10 mM), and NADPH (2 mM). Following pre-incubation of the above reaction mixture for 10 min at 37 °C, the reaction was initiated by spiking JNJ at a final 1 µg mL^−1 concentration. Alongside the test compound, testosterone at a final concentration of 1 µg mL^−1 was incubated as a positive control. All experiments were performed in triplicate. At sampling times of 0, 5, 10, 20, 30, 45, and 60 min, 40 µL samples were collected and quenched with 300 µL ice-chilled acetonitrile supplemented with 10 µL IS. Simultaneously, samples from NADPH-free negative controls were also withdrawn and processed accordingly to confirm any non-enzymatic degradation. Finally, after 1 h of collection, samples were vortexed at 1000 rpm for 1 min and centrifuged at 2200× g for 15 min, and the collected supernatant was analyzed using LC-MS/MS.
The natural logarithm of the area ratio versus time was plotted, and the slope of the curve was calculated by a linear regression equation to generate the elimination rate constant, k (min^−1). CLint was calculated by the following equation:(2) CLint=0.693/t1/2×Volume of incubation mixture (mL)/microsomal protein (mg)
CLH,int of JNJ in the mouse and human liver was then estimated from CLint using the scaling factor.(3) CLH,int=CLint×Microsomal protein (mg)/Liver (g)×Liver weight (g)/Body weight (kg)
Here, 45 and 32 mg of microsomal protein per g of liver weight were applied, and 60 and 25 g of liver weight per kg body weight were used for mouse and human tissue, respectively.
Then, CLH,int was corrected for microsomal binding (CLH,int/fu,inc) and CLH,predict was predicted using the well-stirred model by the following equation:(4) CLH,predict=Q × fu,plasma×CLH,int/fu,inc /Q + fu,plasma×CLH,int/fu,inc
Here, Q is the hepatic blood flow (90 mL min^−1 kg^−1 in mouse), fu,plasma is the fraction unbound in plasma, fu,inc is the fraction unbound in microsomal incubation and CLH,int is included from Equation (3); fu,inc was calculated by adding logP of JNJ (2.3) to the following equation:(5) fu,inc=1/1 + 10^0.53 logP − 1.42

[4] = Rapid equilibrium dialysis (RED) plasma protein binding; assay type: in vitro ADME; conditions: for fraction unbound at 5 h: mouse, plasma
Experimental: as §1

[5] = input for fu,inc equation; source not given; cited from earlier work
[6] = male, mouse, IV 2.5 mg kg^−1, balb/c mice, plasma, n = 6
[7] = male, mouse, PO 10 mg kg^−1, balb/c mice, plasma, n = 4

solubility kinetic at 2 h (Kinetic solubility study): 3 ± 0.6 µg/mL (≈ 6.21 µM)
Brain Protein Binding (%) ([1]; mouse brain homogenate, RED, 5 h, 37 °C, n = 3): 94 ± 1%
fraction unbound at 5 h ([1]; mouse brain homogenate, RED, 5 h, 37 °C, n = 3, read-out: Brain Protein Binding (%)): < 0.06
fraction unbound at 5 h ([1]; mouse brain, read-out: fraction unbound in brain (fu,brain)): 0.057
underestimation of observed plasma clearance by predicted hepatic clearance ([2]; 1.6 vs 3.8 mL min^−1 kg^−1, mice): approximately 2.3 fold
in vivo clearance as % of mice hepatic blood flow ([2]; IV, hepatic blood flow 3.6 L h^−1 kg^−1): ~6%
volume of distribution relative to total body water ([2]; IV, total body water 68.6% of body weight): ~ 1.6 times
CL (plasma clearance) ([2]; PO 10 mg kg^−1, balb/c mice, oral CL normalized by bioavailability (%)): 3.83 ± 0.67 mL/min/kg
Vz (volume of distribution) ([2]; PO 10 mg kg^−1, balb/c mice, oral Vz normalized by bioavailability (%)): 0.88 ± 0.32 L/kg
Tmax ([2]; PO 10 mg kg^−1, mice, plasma): ~ 30 min
Cmax relative to IC50 in the HD-MB cell line ([2]; PO 10 mg kg^−1, times higher than IC50 (821 ng mL^−1)): ~ 3 times
clearance ([2]; male, balb/c, mouse, plasma, 2.5 mg kg^−1, IV, equivalent to 0.23 L h^−1 kg^−1, read-out: observed plasma clearance): 3.8 mL/min/kg
Tmax ([2]; male, balb/c, mouse, plasma, iv, 2.5 mg/kg, IV 2.5 mg kg^−1, balb/c mice, plasma, n = 6, read-out: Tmax (converted)): 0.11 ± 0.08 h
Tmax ([2]; male, balb/c, mouse, plasma, po, 10 mg/kg, PO 10 mg kg^−1, balb/c mice, plasma, n = 4, read-out: Tmax (converted)): 0.42 ± 0.14 h
Tmax ([2]; male, balb/c, mouse, plasma, po, 10 mg/kg, PO 10 mg kg^−1, mice, plasma, read-out: Tmax (converted)): 0.5 h
clearance ([2]; male, mouse, plasma, IV 2.5 mg kg^−1, balb/c mice, n = 6, read-out: CL (plasma clearance) (converted)): 3.83 mL/min/kg
Vd ([2]; male, mouse, plasma, IV 2.5 mg kg^−1, balb/c mice, n = 6, read-out: Vz (volume of distribution)): 1.2 ± 0.7 L/kg
half-life ([2]; male, mouse, plasma, IV 2.5 mg kg^−1, balb/c mice, n = 6): 3.3 ± 1.1 h
half-life ([2]; male, mouse, plasma, PO 10 mg kg^−1, balb/c mice, n = 4): 2.6 ± 0.7 h
bioavailability ([2]; male, mouse, plasma, PO 10 mg kg^−1 vs IV 2.5 mg kg^−1, balb/c mice): ~15% and 15%
AUC [2, 6]: 11600 ng·h/mL
Cmax [2, 6]: 4940 ± 1220 ng/mL
AUC [2, 7]: 6800 ± 1270 ng·h/mL
Cmax [2, 7]: 2780 ± 1030 ng/mL
microsomal intrinsic clearance (CLint) ([3]; MLM, mean ± SD, n = 3): 0.02 ± 0.01 mL min^−1 mg^−1 protein
half-life at 1 µg mL^−1 ([3]; mouse, liver microsomes, pH 7.4, MLM, mean ± SD, n = 3, read-out: Half-life (t1/2)): 1.68 ± 0.65 h
remaining at 1 h, 1 µg mL^−1 ([3]; mouse, liver microsomes, pH 7.4, MLMs, NADPH, 1 µg mL^−1, n = 3, read-out: percent remaining concentration after 1 h incubation): 60 ± 12%
Plasma Protein Binding (%) ([4]; mouse plasma, RED, 5 h, 37 °C, n = 3): 97 ± 3%
fraction unbound at 5 h ([4]; RED, 5 h, 37 °C, n = 3, read-out: Plasma Protein Binding (%)): < 0.06
fraction unbound at 5 h ([4]; read-out: fraction unbound in plasma (fu,plasma)): 0.025
Structure (SMILES): Nc1nc2cc(CC[C@H]3C[C@@H](n4ccc5c(N)ncnc54)[C@H](O)[C@@H]3O)ccc2cc1Br [JNJ, JNJ-64619178]
hepatic intrinsic clearance (CLH,int) ([3]; MLM, scaled from CLint (45 mg protein/g liver, 60 g liver/kg)): 41 ± 19 mL min^−1 kg^−1 body weight
predicted in vivo hepatic clearance (CLH,predict) ([3]; mice, in vitro scaling, well-stirred model): 1.6 mL min^−1 kg^−1 body weight and 1.6 ± 0.7 mL min^−1 kg^−1 body weight
logP [5]: 2.3
